One data set concerns the target SARS-CoV-2 PLpro (Severe acute respiratory syndrome coronavirus 2, UniProt P0DTD1). The experiment in a line: FRET-based PLpro enzymatic assay. The class given is biochemical. A digest of the protocol: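 200 nM PLpro in 50 mM Hepes pH 7.5, 0.01% Triton X-100, 5 mM DTT, preincubated with compound 30 min at 30 °C; 10 μM final FRET substrate.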
Data set [1] can be described thus: Cytotoxicity assay in Vero E6 cells (neutral red uptake). The class given is cell-based. The note with it: African green monkey.
Data set [2] concerns SARS-CoV-2 viral replication. The note with it: cited from earlier work.
Setting [3] is: 200 nM PLpro, 10 μM FRET substrate, 30 min preincubation at 30° C., read-out: IC50.
Setting [4] is: Vero E6 cells, 2 days at 37° C., neutral red uptake, read-out: Vero CC50.

Where two headings read alike, the source gives them in different places.

The values that follow come from patent US20240382494A1, “THERAPEUTIC COMPOUNDS” (priority 2023, published 2024).

Usually IC50 stands for the concentration needed to halve the response being measured. What is called CC50 is the concentration at which the toxic effect on the cells reaches its halfway point. What is called EC50 is the concentration needed to bring the measured effect to its halfway point.

Turning to `Cc1ccc(N2CCN(C)CC2)cc1C(=O)N[C@H](C)c1cc(-c2ccn(C)n2)nc2ccccc12` [Example 97, (R)-2-methyl-N-(1-(2-(1-methyl-1H-pyrazol-3-yl)quinolin-4-yl)ethyl)-5-(4-methylpiperazin-1-yl)benzamide], the IC50 at SARS-CoV-2 PLpro (setting [3]) is under 0.5 µM. Further, the cytotoxic concentration (CC50) at 2 days in data set [1] (setting [4]) was 30.7 ± 2.45 µM.

On to `Cc1ccc(OC[C@@H]2CCCN2C)cc1C(=O)N[C@H](C)c1cc(-c2ccn(C)n2)nc2ccccc12` [Example 98, 2-methyl-N—((R)-1-(2-(1-methyl-1H-pyrazol-3-yl)quinolin-4-yl)ethyl)-5-(((S)-1-methylpyrrolidin-2-yl)methoxy)benzamide], for which the IC50 at SARS-CoV-2 PLpro (setting [3]) was under 0.5 µM. The CC50 at 2 days in data set [1] (setting [4]) was 18.8 ± 1.49 µM. For `Cc1ccc(N2CCN(C)[C@H](C)C2)cc1C(=O)N[C@H](C)c1cc(-c2ccn(C)n2)nc2ccccc12` [Example 99, 5-((R)-3,4-dimethylpiperazin-1-yl)-2-methyl-N—((R)-1-(2-(1-methyl-1H-pyrazol-3-yl)quinolin-4-yl)ethyl)benzamide], the IC50 at SARS-CoV-2 PLpro (setting [3]) is under 0.5 µM. The CC50 at 2 days in data set [1] (setting [4]) was determined as 24.3 ± 2.62 µM. For the compound `Cc1ccc(N2CC[C@@H](N(C)C)C2)cc1C(=O)N[C@H](C)c1cc(-c2ccn(C)n2)nc2ccccc12` [Example 100, 5-((R)-3-(dimethylamino)pyrrolidin-1-yl)-2-methyl-N—((R)-1-(2-(1-methyl-1H-pyrazol-3-yl)quinolin-4-yl)ethyl)benzamide], the IC50 at SARS-CoV-2 PLpro (setting [3]) was under 0.5 µM. Also, the CC50 at 2 days in data set [1] (setting [4]) was found to be 30.6 ± 1.72 µM. `Cc1ccc(N2CCN(C)C3(CC3)C2)cc1C(=O)N[C@H](C)c1cc(-c2ccn(C)n2)nc2ccccc12` [Example 101, (R)-2-methyl-N-(1-(2-(1-methyl-1H-pyrazol-3-yl)quinolin-4-yl)ethyl)-5-(4-methyl-4,7-diazaspiro[2.5]octan-7-yl)benzamide]: the IC50 on SARS-CoV-2 PLpro (setting [3]) is 0.5 to 1 µM. Moreover, the CC50 at 2 days in data set [1] (setting [4]) worked out at 40.8 ± 4.27 µM. In turn, `Cc1ccc(N2CC3CCC(C2)N3C)cc1C(=O)N[C@H](C)c1cc(-c2ccn(C)n2)nc2ccccc12` [Example 102, 2-methyl-N—((R)-1-(2-(1-methyl-1H-pyrazol-3-yl)quinolin-4-yl)ethyl)-5-(8-methyl-3,8-diazabicyclo[3.2.1]octan-3-yl)benzamide] yielded a 50% inhibitory concentration (IC50) on SARS-CoV-2 PLpro of under 0.5 µM. Further, half-maximal cytotoxicity in data set [1] (CC50 at 2 days) was put at 15.2 ± 1.09 µM.

On to `Cc1ccc(N2C[C@H]3CN(C)C[C@H]3C2)cc1C(=O)N[C@H](C)c1cc(-c2ccn(C)n2)nc2ccccc12` [Example 103, 2-methyl-N—((R)-1-(2-(1-methyl-1H-pyrazol-3-yl)quinolin-4-yl)ethyl)-5-((3aR,6aS)-5-methylhexahydropyrrolo[3,4-c]pyrrol-2(1H)-yl)benzamide], for which the IC50 on SARS-CoV-2 PLpro (setting [3]) was under 0.5 µM. In addition, the CC50 at 2 days in data set [1] (setting [4]) turned out to be 27.3 ± 1.74 µM. `CCn1ccc(-c2cc([C@@H](C)NC(=O)c3cc(N4CCN(C)[C@H](C)C4)ccc3C)c3ccccc3n2)n1` [Example 104, 5-((R)-3,4-dimethylpiperazin-1-yl)-N—((R)-1-(2-(1-ethyl-1H-pyrazol-3-yl)quinolin-4-yl)ethyl)-2-methylbenzamide]: the concentration for half-maximal inhibition (IC50) on SARS-CoV-2 PLpro (setting [3]) was under 0.5 µM. In data set [1] (setting [4]), the CC50 at 2 days amounted to 30.5 ± 2.21 µM. `CCn1ccc(-c2cc([C@@H](C)NC(=O)c3cc(N4CC5CCC(C4)N5C)ccc3C)c3ccccc3n2)n1` [Example 106, N—((R)-1-(2-(1-ethyl-1H-pyrazol-3-yl)quinolin-4-yl)ethyl)-2-methyl-5-(8-methyl-3,8-diazabicyclo[3.2.1]octan-3-yl)benzamide] registered an IC50 against SARS-CoV-2 PLpro of under 0.5 µM. In data set [1], this compound gave a CC50 at 2 days of 31.3 ± 7.45 µM. For the compound `CCn1ccc(-c2cc([C@@H](C)NC(=O)c3cc(N4C[C@H]5C[C@@H]4CN5C)ccc3C)c3ccccc3n2)n1` [Example 107, N—((R)-1-(2-(1-ethyl-1H-pyrazol-3-yl)quinolin-4-yl)ethyl)-2-methyl-5-((1R,4R)-5-methyl-2,5-diazabicyclo[2.2.1]heptan-2-yl)benzamide], the half-maximal inhibitory concentration (IC50) on SARS-CoV-2 PLpro (setting [3]) is under 0.5 µM. The CC50 at 2 days in data set [1] (setting [4]) came to 22.3 ± 1.39 µM. On to `CCn1ccc(-c2cc([C@@H](C)NC(=O)c3cc(N4CCN(C)CC4)ccc3C)c3ccccc3n2)n1` [Example 108, (R)—N-(1-(2-(1-ethyl-1H-pyrazol-3-yl)quinolin-4-yl)ethyl)-2-methyl-5-(4-methylpiperazin-1-yl)benzamide], for which the IC50 at SARS-CoV-2 PLpro (setting [3]) was under 0.5 µM. Also, the CC50 at 2 days in data set [1] (setting [4]) is 18.5 ± 1.4 µM.

`CCn1ccc(-c2cc([C@@H](C)NC(=O)c3cc(OC[C@H]4CCCN4C)ccc3C)c3ccccc3n2)n1` [Example 110, N—((R)-1-(2-(1-ethyl-1H-pyrazol-3-yl)quinolin-4-yl)ethyl)-2-methyl-5-(((R)-1-methylpyrrolidin-2-yl)methoxy)benzamide]: at SARS-CoV-2 PLpro (setting [3]), the IC50 is under 0.5 µM. In addition, the CC50 at 2 days in data set [1] (setting [4]) stood at 46.3 ± 13.9 µM. As to `Cc1ccc(N2CC3CCC(C2)N3C)cc1C(=O)NC1(c2cc(-c3cnn(C)c3)nc3ccccc23)CC1` [Example 112, 2-methyl-N-(1-(2-(1-methyl-1H-pyrazol-4-yl)quinolin-4-yl)cyclopropyl)-5-(8-methyl-3,8-diazabicyclo[3.2.1]octan-3-yl)benzamide], on SARS-CoV-2 PLpro, the IC50 is under 0.5 µM. This compound yielded a CC50 at 2 days in data set [1] of 53.8 ± 2.52 µM. In the case of `Cc1ccc(OC[C@@H]2C[C@@H](F)CN2C)cc1C(=O)NC1(c2cc(-c3cnn(C)c3)nc3ccccc23)CC1` [Example 114, 5-(((2S,4R)-4-fluoro-1-methylpyrrolidin-2-yl)methoxy)-2-methyl-N-(1-(2-(1-methyl-1H-pyrazol-4-yl)quinolin-4-yl)cyclopropyl)benzamide], the IC50 on SARS-CoV-2 PLpro (setting [3]) was under 0.5 µM. In data set [1] (setting [4]), the CC50 at 2 days was 51.3 ± 6.52 µM. For `Cc1ccc(OC[C@@H]2CCN2C)cc1C(=O)NC1(c2cc(-c3cnn(C)c3)nc3ccccc23)CC1` [Example 115, (S)-2-methyl-N-(1-(2-(1-methyl-1H-pyrazol-4-yl)quinolin-4-yl)cyclopropyl)-5-((1-methylazetidin-2-yl)methoxy)benzamide], the IC50 on SARS-CoV-2 PLpro (setting [3]) was under 0.5 µM. In addition, in data set [1] (setting [4]), the CC50 at 2 days was 127 ± 7.89 µM.

As to `Cc1ccc(N)cc1C(=O)N[C@H](C)c1cccc2ccccc12` [GRL0617], in data set [2], the EC50 was about 20 µM.
